ChEMBL document CHEMBL1201862, “PubChem BioAssay data set” (2004)
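A five-concentration, 48-hour dose response in 96-well plates underlies each endpoint, interpolated linearly between surrounding concentrations. Abbreviation: GI50, concentration required for 50% inhibition of growth.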 The source made the active and inactive calls. Rule as the data show it: active = GI50 up to about 1.1 µM and inactive = higher.

Key:
Assay in all cases: NCI-60 cell line screen, 48 h
M19-MEL = system: M19-MEL
HCT-116 = system: HCT-116
UACC-62 = system: UACC-62
DMS-273 = system: DMS-273
786-0 = system: 786-0
A549 = system: A549
ACHN = system: ACHN
SN12C = system: SN12C
SK-MEL-28 = system: SK-MEL-28
SK-MEL-5 = system: SK-MEL-5
Malme-3M = system: Malme-3M
LOX IMVI = system: LOX IMVI
DLD-1 = system: DLD-1
SF-295 = system: SF-295
OVCAR-4 = system: OVCAR-4
KM-20L2 = system: KM-20L2
SW-620 = system: SW-620
UACC-257 = system: UACC-257
SK-OV-3 = system: SK-OV-3
HOP-92 = system: HOP-92
SF-539 = system: SF-539
NCI-H23 = system: NCI-H23
UO-31 = system: UO-31
A498 = system: A498
IGROV-1 = system: IGROV-1
DMS-114 = system: DMS-114
OVCAR-3 = system: OVCAR-3
SR = system: SR
OVCAR-5 = system: OVCAR-5
K562 = system: K562
LXFL 529 = system: LXFL 529
KM12 = system: KM12
NCI-H522 = system: NCI-H522
HL-60 = system: HL-60
SK-MEL-2 = system: SK-MEL-2
TK-10 = system: TK-10
U-251 = system: U-251
CCRF-CEM = system: CCRF-CEM
HCT-15 = system: HCT-15
SF-268 = system: SF-268
XF498 = system: XF498
SNB-75 = system: SNB-75
HCC 2998 = system: HCC 2998
CAKI-1 = system: CAKI-1
EKVX = system: EKVX
SNB-78 = system: SNB-78
OVCAR-8 = system: OVCAR-8
NCI-H226 = system: NCI-H226
RPMI-8226 = system: RPMI-8226
M14 = system: M14
HT-29 = system: HT-29
MOLT-4 = system: MOLT-4
HOP-62 = system: HOP-62
NCI-H460 = system: NCI-H460
RXF 393 = system: RXF 393
COLO 205 = system: COLO 205
SNB-19 = system: SNB-19
HOP-18 = system: HOP-18

Structure (SMILES): COc1ccc2nc3cc(Cl)ccc3c(NC(C)CCCN(CCCl)CCCl)c2c1 (stereo not drawn)
- GI50 (M19-MEL): 598 nM (active)
- GI50 (HCT-116): 199 nM (active)
- GI50 (UACC-62): 290 nM (active)
- GI50 (DMS-273): 109 nM (active)
- GI50 (786-0): 310 nM (active)
- GI50 (A549): 474 nM (active)
- GI50 (ACHN): 161 nM (active)
- GI50 (SN12C): 269 nM (active)
- GI50 (SK-MEL-28): 5000 nM (inactive)
- GI50 (SK-MEL-5): 1970 nM (inactive)
- GI50 (Malme-3M): 1850 nM (inactive)
- GI50 (LOX IMVI): 176 nM (active)
- GI50 (DLD-1): 524 nM (active)
- GI50 (SF-295): 215 nM (active)
- GI50 (OVCAR-4): 849 nM (active)
- GI50 (KM-20L2): 356 nM (active)
- GI50 (SW-620): 116 nM (active)
- GI50 (UACC-257): 1430 nM (inactive)
- GI50 (SK-OV-3): 830 nM (active)
- GI50 (HOP-92): 569 nM (active)
- GI50 (SF-539): 550 nM (active)
- GI50 (NCI-H23): 510 nM (active)
- GI50 (UO-31): 2040 nM (inactive)
- GI50 (A498): 3120 nM (inactive)
- GI50 (IGROV-1): 317 nM (active)
- GI50 (DMS-114): 733 nM (active)
- GI50 (OVCAR-3): 853 nM (active)
- GI50 (SR): 46.3 nM (active)
- GI50 (OVCAR-5): 929 nM (active)
- GI50 (K562): 262 nM (active)
- GI50 (LXFL 529): 439 nM (active)
- GI50 (KM12): 520 nM (active)
- GI50 (NCI-H522): 550 nM (active)
- GI50 (HL-60): 120 nM (active)
- GI50 (SK-MEL-2): 1100 nM (active)
- GI50 (TK-10): 1300 nM (inactive)
- GI50 (U-251): 607 nM (active)
- GI50 (CCRF-CEM): 61.2 nM (active)
- GI50 (HCT-15): 1110 nM
- GI50 (SF-268): 273 nM (active)
- GI50 (XF498): 333 nM (active)
- GI50 (SNB-75): 1420 nM (inactive)
- GI50 (HCC 2998): 1350 nM (inactive)
- GI50 (CAKI-1): 785 nM (active)
- GI50 (EKVX): 787 nM (active)
- GI50 (SNB-78): 622 nM (active)
- GI50 (OVCAR-8): 169 nM (active)
- GI50 (NCI-H226): 387 nM (active)
- GI50 (RPMI-8226): 293 nM (active)
- GI50 (M14): 809 nM (active)
- GI50 (HT-29): 272 nM (active)
- GI50 (MOLT-4): 54 nM (active)
- GI50 (HOP-62): 1400 nM (inactive)
- GI50 (NCI-H460): 159 nM (active)
- GI50 (RXF 393): 1040 nM (active)
- GI50 (COLO 205): 397 nM (active)
- GI50 (SNB-19): 740 nM (active)

Structure (SMILES): CCCc1ccc(NCc2cc(OC)c(OC)c(OC)c2)cc1
- GI50 (M19-MEL): 20500 nM (inactive)
- GI50 (HCT-116): 24700 nM (inactive)
- GI50 (UACC-62): 26900 nM (inactive)
- GI50 (786-0): 22400 nM (inactive)
- GI50 (A549): 41800 nM (inactive)
- GI50 (ACHN): 30600 nM (inactive)
- GI50 (SN12C): 22300 nM (inactive)
- GI50 (SK-MEL-28): 25100 nM (inactive)
- GI50 (SK-MEL-5): 15500 nM (inactive)
- GI50 (Malme-3M): 19400 nM (inactive)
- GI50 (LOX IMVI): 15700 nM (inactive)
- GI50 (DLD-1): 23900 nM (inactive)
- GI50 (OVCAR-4): 32400 nM (inactive)
- GI50 (KM-20L2): 28600 nM (inactive)
- GI50 (UACC-257): 22400 nM (inactive)
- GI50 (SK-OV-3): 22300 nM (inactive)
- GI50 (HOP-92): 22900 nM (inactive)
- GI50 (SF-539): 28300 nM (inactive)
- GI50 (NCI-H23): 22000 nM (inactive)
- GI50 (UO-31): 24700 nM (inactive)
- GI50 (A498): 28300 nM (inactive)
- GI50 (IGROV-1): 24400 nM (inactive)
- GI50 (DMS-114): 15600 nM (inactive)
- GI50 (OVCAR-5): 26600 nM (inactive)
- GI50 (K562): 12100 nM (inactive)
- GI50 (LXFL 529): 17000 nM (inactive)
- GI50 (KM12): 23100 nM (inactive)
- GI50 (SK-MEL-2): 18600 nM (inactive)
- GI50 (TK-10): 59800 nM (inactive)
- GI50 (HOP-18): 31300 nM (inactive)
- GI50 (U-251): 29600 nM (inactive)
- GI50 (CCRF-CEM): 17800 nM (inactive)
- GI50 (HCT-15): 17700 nM
- GI50 (SF-268): 27700 nM (inactive)
- GI50 (XF498): 18900 nM (inactive)
- GI50 (SNB-75): 29000 nM (inactive)
- GI50 (EKVX): 61000 nM (inactive)
- GI50 (SNB-78): 56900 nM (inactive)
- GI50 (OVCAR-8): 35300 nM (inactive)
- GI50 (RPMI-8226): 12700 nM (inactive)
- GI50 (HT-29): 23600 nM (inactive)
- GI50 (MOLT-4): 18200 nM (inactive)
- GI50 (HOP-62): 34100 nM (inactive)
- GI50 (NCI-H460): 55000 nM (inactive)
- GI50 (RXF 393): 32300 nM (inactive)
- GI50 (SNB-19): 36400 nM (inactive)
